Experimental data as given in patent US7585644B2, “Mycopolasma detecting methods and materials” (priority 2003, dated 2009).

Key:
[1] = tested on: luciferase enzyme/reaction; experiment: Effect of detergents and substrate on light output of the luciferase reaction; format: biochemical
Text: (§1) The aim of the following experiments was to determine the concentrations of Triton-X100 in the Hepes-EDTA buffer on the ratios seen with mycoplasma contaminated K562 cell cultures. Two organisms were investigated, M. hyorhinis and M. orale.
(§2) However, it is still possible to detect positive activity with concentrations as high as 20% (v/v).
(§3) The concentrations of these detergents can be taken up to 10% without loss of sensitivity of mycoplasmal detection.

[2] = tested on: M. pneumoniae, M. hominis, M. fermentans, M. genitalium and U. urealyticum; conditions: variable responses between species; cited from earlier work
[3] = tested on: M. hyorhinis and M. orale; experiment: Effect of detergent concentration on detection of mycoplasma enzyme activities; format: cell-based
Text: as §1, §2
However, mycoplasma can be lysed with concentrations of Triton X-100 at around 1-2%.
as §3

[4] = tested on: E. coli strain JM109 cells; experiment: Effect of Triton-X100 on carbamate or acetate kinase activity from bacterial cells; format: cell-based
luciferase = luciferase (Photinus pyralis, UniProt P08659); conditions: cited from earlier work
luciferase, sequence (P08659 whole entry): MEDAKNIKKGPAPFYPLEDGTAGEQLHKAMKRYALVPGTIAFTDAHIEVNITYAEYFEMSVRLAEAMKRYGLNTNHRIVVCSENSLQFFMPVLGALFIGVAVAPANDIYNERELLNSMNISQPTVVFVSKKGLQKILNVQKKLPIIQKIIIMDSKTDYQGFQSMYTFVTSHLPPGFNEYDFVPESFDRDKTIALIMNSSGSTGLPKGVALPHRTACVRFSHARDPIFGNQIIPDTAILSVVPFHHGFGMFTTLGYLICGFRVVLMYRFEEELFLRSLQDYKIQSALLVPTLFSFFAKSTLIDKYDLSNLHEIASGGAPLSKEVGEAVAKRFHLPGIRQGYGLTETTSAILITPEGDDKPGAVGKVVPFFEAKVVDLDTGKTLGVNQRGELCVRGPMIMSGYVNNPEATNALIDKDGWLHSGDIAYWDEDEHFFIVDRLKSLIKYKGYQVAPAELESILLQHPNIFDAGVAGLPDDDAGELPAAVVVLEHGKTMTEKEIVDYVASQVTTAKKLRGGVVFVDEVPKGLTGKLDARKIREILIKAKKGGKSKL

CC(=O)OP(=O)(O)O [Acetyl phosphate]
concentration above which light output is reduced ([1]; assay still performs): above 10

CO/N=C1\CN(c2nc3c(cc2F)c(=O)c(C(=O)O)cn3C2CC2)CC1CN (centres unmarked) [gemifloxacin]
performance against mycoplasma compared with other antibiotics [2]: performed better than tetracycline

Triton-X100
detergent concentration above which light output drops ([1]; K562 cells infected with M. hyorhinis and M. orale, Hepes-EDTA buffer): 4-5%
concentration that lyses mycoplasma [3]: 1-2%
highest detergent concentration at which positive activity is still detected ([3]; K562 cells infected with M. hyorhinis and M. orale): 20 % (v/v)
carbamate or acetate kinase activity ([4]; Triton-X100 concentrations of the FIG. 10 experiments): did not result in any detectable carbamate or acetate kinase activity
ratio B/A ([4]; Triton-X100 increased to 1-2%): did not result in positive ratios above 1

Nc1ncnc2c1ncn2[C@H]1C[C@H](O)[C@@H](COP(=O)(O)OP(=O)(O)OP(=O)(O)O)O1 [deoxy-ATP]
light produced relative to the light generated by ATP (luciferase): less than 2%
